Values joined by “and” are separate entries in the source; they are usually repeats but may differ in a detail not shown here. Identical values can stand only once.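 The compound was tested at five concentrations on cells cultured in 96-well plates, with a 48-hour exposure period. Abbreviation: GI50, concentration required for 50% inhibition of growth.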 Active and inactive are the calls of the source. Rule as the data show it: active = GI50 up to about 1.1 µM and inactive = higher.
Key:
Experiment in all cases: NCI tumour cell line growth inhibition, 48 h
OVCAR-8 = system: OVCAR-8
MOLT-4 = system: MOLT-4
MCF7 = system: MCF7
HCC 2998 = system: HCC 2998
DU-145 = system: DU-145
OVCAR-3 = system: OVCAR-3
OVCAR-4 = system: OVCAR-4
A549 = system: A549
RPMI-8226 = system: RPMI-8226
T47D = system: T47D
K562 = system: K562
SF-268 = system: SF-268
UACC-62 = system: UACC-62
HCT-15 = system: HCT-15
SK-OV-3 = system: SK-OV-3
NCI-H23 = system: NCI-H23
NCI-H460 = system: NCI-H460
NCI-H522 = system: NCI-H522
BT-549 = system: BT-549
COLO 205 = system: COLO 205

Measured: GI50

CCCCCCCC(=O)N/N=C/c1ccc(Sc2nccn2C)c([N+](=O)[O-])c1
inactive: OVCAR-8 14.4 µM | MOLT-4 11.4 µM | MCF7 16.6 µM | HCC 2998 13.4 µM | DU-145 18.4 µM | OVCAR-3 15.6 µM | OVCAR-4 13.2 µM | A549 27.9 µM | RPMI-8226 13 µM | T47D 10.7 µM | K562 14.2 µM | SF-268 15.7 µM | UACC-62 13 µM | SK-OV-3 26.7 µM | NCI-H23 18.2 µM | NCI-H460 14.9 µM | NCI-H522 12.2 µM | BT-549 16.1 µM | COLO 205 13.7 µM
14.5 µM: HCT-15

C1CSCCCSCCCSCCCSCCCSC1
40.6 µM: HCT-15
inactive: OVCAR-8 29 µM | MOLT-4 9.82 µM | MCF7 24.5 µM | HCC 2998 38 µM | DU-145 46.5 µM | OVCAR-3 28.6 µM | OVCAR-4 22.5 µM | A549 28.5 µM | RPMI-8226 5.32 µM | T47D 17.2 µM | K562 21.4 µM | SF-268 33.1 µM | UACC-62 44.6 µM | SK-OV-3 34.4 µM | NCI-H23 26.5 µM | NCI-H460 14.4 µM | NCI-H522 27.2 µM | BT-549 33.8 µM | COLO 205 13.1 µM

C=C1c2nc3ccccc3n2C=C(c2ccccc2)N1c1ccc(Cl)cc1
inactive: OVCAR-8 25.1 µM | MOLT-4 > 100 µM | MCF7 11.2 µM | HCC 2998 65.6 µM | DU-145 59.8 µM | OVCAR-3 20 µM | OVCAR-4 5.74 µM | A549 15.8 µM | RPMI-8226 > 55.3 µM | T47D 12.6 µM | K562 51.3 µM | SF-268 > 100 µM | UACC-62 19.1 µM | SK-OV-3 27.3 µM | NCI-H23 33.1 µM | NCI-H460 12.6 µM | NCI-H522 11.5 µM | BT-549 23.4 µM | COLO 205 > 64.3 µM
33.3 µM: HCT-15

CN1N=C(c2ccccc2)C(C(c2ccccc2[N+](=O)[O-])C2C(=O)N(C)N=C2c2ccccc2)C1=O (stereo not given)
42.6 µM: HCT-15
inactive: OVCAR-8 39.3 µM | MOLT-4 37.6 µM | MCF7 47.1 µM | HCC 2998 53 µM | DU-145 > 100 µM | OVCAR-3 44.6 µM | OVCAR-4 > 100 µM | A549 > 100 µM | RPMI-8226 34.3 µM | T47D > 100 µM | K562 33.9 µM | SF-268 97.7 µM | UACC-62 61.2 µM | SK-OV-3 > 100 µM | NCI-H23 > 100 µM | NCI-H460 > 100 µM | NCI-H522 99.8 µM | BT-549 63.4 µM | COLO 205 > 100 µM

CC(CCC(=O)O)C(=O)O (stereo not given)
inactive: OVCAR-8 > 100 µM | MOLT-4 > 100 µM | MCF7 > 100 µM | HCC 2998 > 100 µM | DU-145 > 100 µM | OVCAR-3 > 100 µM | OVCAR-4 > 100 µM | A549 > 100 µM | RPMI-8226 > 100 µM | T47D > 100 µM | K562 > 100 µM | SF-268 > 100 µM | UACC-62 > 100 µM | SK-OV-3 > 100 µM | NCI-H23 > 100 µM | NCI-H460 > 100 µM | NCI-H522 > 100 µM | BT-549 > 100 µM | COLO 205 > 100 µM
> 100 µM: HCT-15

N/C(=N\N=C\c1c[nH]c2ccccc12)Nc1ccccc1
inactive: OVCAR-4 1.58 µM | T47D 1.36 µM
active: OVCAR-8 0.41 µM | MOLT-4 0.938 µM | MCF7 0.185 µM | HCC 2998 0.594 µM | DU-145 0.314 µM | OVCAR-3 0.134 µM | A549 0.455 µM | RPMI-8226 1 µM | K562 0.278 µM | SF-268 0.573 µM | UACC-62 0.248 µM | SK-OV-3 0.418 µM | NCI-H23 0.308 µM | NCI-H460 0.251 µM | NCI-H522 0.0596 µM | BT-549 0.527 µM | COLO 205 0.188 µM
0.318 µM: HCT-15

O=c1c(=O)c2c(Br)sc(Br)c2c1=O
19.4 µM: HCT-15
inactive: OVCAR-8 18.3 µM | MOLT-4 24.3 µM | MCF7 20.3 µM | HCC 2998 57.3 µM | DU-145 > 100 µM | OVCAR-3 18.5 µM | OVCAR-4 16.4 µM | A549 > 100 µM | RPMI-8226 21.6 µM | T47D 20 µM | K562 21.4 µM | SF-268 33 µM | UACC-62 20.1 µM | SK-OV-3 43.8 µM | NCI-H23 20.3 µM | NCI-H460 > 100 µM | NCI-H522 16.1 µM | BT-549 19.4 µM | COLO 205 20.3 µM

O=C1C2C=CC1C1C(=O)OC(=O)C21 (stereo not given)
inactive: OVCAR-8 > 100 µM | MOLT-4 > 100 µM | MCF7 > 100 µM | HCC 2998 > 100 µM | DU-145 > 100 µM | OVCAR-3 > 100 µM | OVCAR-4 > 100 µM | A549 > 100 µM | RPMI-8226 > 100 µM | T47D > 100 µM | K562 > 100 µM | SF-268 > 100 µM | UACC-62 > 100 µM | SK-OV-3 > 100 µM | NCI-H23 > 100 µM | NCI-H460 > 100 µM | NCI-H522 > 100 µM | BT-549 > 100 µM | COLO 205 > 100 µM
> 100 µM: HCT-15

[O-][n+]1cc(SCc2ccccc2)ncc1SCc1ccccc1
active: BT-549 0.811 µM
inactive: OVCAR-8 > 10 µM | MOLT-4 > 10 µM | MCF7 > 10 µM | HCC 2998 > 10 µM | DU-145 > 10 µM | OVCAR-3 > 10 µM | OVCAR-4 > 10 µM | A549 > 10 µM | RPMI-8226 > 10 µM | T47D > 10 µM | K562 > 10 µM | SF-268 > 10 µM | UACC-62 > 10 µM | SK-OV-3 > 10 µM | NCI-H23 > 10 µM | NCI-H460 > 10 µM | NCI-H522 > 10 µM | COLO 205 > 10 µM
> 10 µM: HCT-15

COC(=O)C1OC(O[C@H]2CC[C@]3(C)[C@H]4CC=C5[C@@H]6CC(C)(C)CC[C@]6(C(=O)OC6OCC(O)C(O)C6OC6OC(C)C(OC7OCC(O)C(O)C7O)C(O)C6O)CC[C@@]5(C)[C@]4(C)CC[C@H]3C2(C)C)C(O)C(O)C1O (stereo not given in full)
26.9 µM and 28.8 µM: HCT-15
inactive: OVCAR-8 21.4 µM and 15.2 µM | MOLT-4 19.3 µM and 18.1 µM | MCF7 13.5 µM and 13 µM | HCC 2998 11.9 µM and 14.2 µM | DU-145 18 µM and 22.1 µM | OVCAR-3 39.5 µM and 42.8 µM | OVCAR-4 15.8 µM and 12.7 µM | A549 16.9 µM and 19.5 µM | RPMI-8226 23.9 µM and 18.8 µM | T47D 28.2 µM and 18.2 µM | K562 25.8 µM and 26 µM | SF-268 17.3 µM and 19.6 µM | UACC-62 18 µM and 18.2 µM | SK-OV-3 21.2 µM and 21.3 µM | NCI-H23 15.4 µM and 15.8 µM | NCI-H460 34.5 µM and 20 µM | NCI-H522 16.1 µM and 16.4 µM | BT-549 18.7 µM and 19.9 µM | COLO 205 13.1 µM and 16.9 µM

C[C@]12Cc3cnc(-c4ccccc4)nc3C[C@@H]1CC[C@@H]1[C@@H]2CC[C@@]2(C)[C@H]1CC[C@]2(C)O
9.44 µM: HCT-15
inactive: OVCAR-8 14.4 µM | MOLT-4 34.3 µM | MCF7 19.3 µM | HCC 2998 14.2 µM | DU-145 17.9 µM | OVCAR-3 23.5 µM | OVCAR-4 14.4 µM | A549 12.8 µM | RPMI-8226 5.06 µM | T47D 11 µM | K562 2.96 µM | SF-268 12.9 µM | UACC-62 11.2 µM | SK-OV-3 18 µM | NCI-H23 17.6 µM | NCI-H460 17.3 µM | NCI-H522 10.7 µM | BT-549 23 µM | COLO 205 11.7 µM

COCC([C@@H](O)C(O)C(=O)NCC[C@@H](C)c1nc(/C=C/CC2OC3(C[C@H](O)C2C)OC(C(C[C@H](O)C(C)[C@H](O)C(C)/C=C(C)/C(C)=C/C=C/C(C)=C/C#N)OC)[C@@H](OP(=O)(O)O)C3(C)C)co1)N(C)C (stereo not given in full)
active: OVCAR-8 0.000208 µM | MOLT-4 0.00082 µM | MCF7 0.000184 µM | HCC 2998 0.000185 µM | DU-145 0.000182 µM | OVCAR-3 0.000186 µM | OVCAR-4 0.00137 µM | A549 0.0004 µM | RPMI-8226 0.000272 µM | T47D 0.000703 µM | K562 0.000296 µM | SF-268 0.000192 µM | UACC-62 0.000195 µM | SK-OV-3 0.000474 µM | NCI-H23 0.000762 µM | NCI-H460 0.000139 µM | NCI-H522 0.000167 µM | BT-549 0.000167 µM | COLO 205 0.000171 µM
0.000202 µM: HCT-15

COC(=O)[C@H](Cc1c[nH]c2ccccc12)NP(=O)(OCCC#N)OCC1OC(n2cc(C)c(=O)[nH]c2=O)CC1N=[N+]=[N-] (stereo not given in full)
> 100 µM: HCT-15
inactive: OVCAR-8 > 100 µM | MOLT-4 > 100 µM | MCF7 > 100 µM | HCC 2998 > 100 µM | DU-145 > 100 µM | OVCAR-3 > 100 µM | OVCAR-4 > 100 µM | A549 > 100 µM | RPMI-8226 > 100 µM | T47D > 100 µM | K562 > 100 µM | SF-268 > 100 µM | UACC-62 > 100 µM | SK-OV-3 > 100 µM | NCI-H23 > 100 µM | NCI-H460 > 100 µM | NCI-H522 > 100 µM | BT-549 > 100 µM | COLO 205 > 100 µM

From ChEMBL document CHEMBL1201862, “PubChem BioAssay data set” (2004)
